According to patent US20240400553A1, “AMINE BASED MATRIPTASE 2 INHIBITORS AND USES THEREOF” (Disc Medicine, Inc., priority 2023, published 2024):
Read-outs that look alike come from different tables or passages of the source.

Target: T1, Human Recombinant Matriptase 2 (Homo sapiens, UniProt Q8IU80)
T1 construct: made in house
T1 sequence (Q8IU80 1-811): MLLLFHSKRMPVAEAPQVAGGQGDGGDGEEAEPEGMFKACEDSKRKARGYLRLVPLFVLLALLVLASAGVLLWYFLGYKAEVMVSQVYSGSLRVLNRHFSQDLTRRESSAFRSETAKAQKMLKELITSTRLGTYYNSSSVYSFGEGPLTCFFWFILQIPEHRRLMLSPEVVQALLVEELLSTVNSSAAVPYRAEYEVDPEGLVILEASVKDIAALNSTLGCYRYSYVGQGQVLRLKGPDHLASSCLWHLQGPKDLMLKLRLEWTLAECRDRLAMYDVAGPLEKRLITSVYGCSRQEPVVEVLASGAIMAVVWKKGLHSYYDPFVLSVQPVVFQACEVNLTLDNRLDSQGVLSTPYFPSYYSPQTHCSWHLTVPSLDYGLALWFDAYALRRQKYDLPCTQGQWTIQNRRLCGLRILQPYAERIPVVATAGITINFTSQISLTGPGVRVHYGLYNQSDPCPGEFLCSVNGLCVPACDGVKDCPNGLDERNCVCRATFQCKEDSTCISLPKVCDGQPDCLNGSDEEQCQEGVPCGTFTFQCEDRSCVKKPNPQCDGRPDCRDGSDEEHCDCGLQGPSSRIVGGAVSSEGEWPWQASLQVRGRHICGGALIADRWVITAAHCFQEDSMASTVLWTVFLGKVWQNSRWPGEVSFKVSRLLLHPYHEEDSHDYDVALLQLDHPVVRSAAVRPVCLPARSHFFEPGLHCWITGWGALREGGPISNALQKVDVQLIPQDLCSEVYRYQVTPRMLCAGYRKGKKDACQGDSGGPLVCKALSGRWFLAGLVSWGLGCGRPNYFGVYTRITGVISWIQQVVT
Assay: Matriptase 2 inhibition, fluorescence based assay (Method I)
Assay type: biochemical
Procedure, shortened: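 Fluorogenic readout (Ex 360/Em 480 nm) taken 60 min after adding 62 μM Boc-Gln-Ala-Arg-AMC, following 30-min enzyme–compound preincubation at 25 °C. Conditions: 3.5 nM in-house enzyme, pH 7.5 Tris/NaCl/gelatin buffer, 1% DMSO; percent inhibition versus concentration fitted by variable-slope sigmoidal regression.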

[1] = Table A, Ki of Matriptase-2, read-out: Mat-2 Ki
[2] = Table A, Ki of Matriptase-2 given as class symbols, read-out: Mat-2 Ki
[3] = Table B, Human Recombinant Matriptase 2, 3.5 nM enzyme, 62 μM substrate, 30 mins preincubation, read-out: Mean Ki

Row | Ki [2] | SMILES | other results
1 | – | Cn1ccnc1COC(=O)c1cc2ccc(CN)nc2n1Cc1cc(NS(=O)(=O)Cc2ccsc2)cc2ccccc12 [Compound 157, (1-methyl-1H-imidazol-2-yl)methyl 6-amino-methyl)-1-({3-[(thio-phen-3-yl)methanesul-fonamido]naphthalen-1-yl}methyl)-1H-pyrrolo-[2,3-b]pyridine-2-car-boxylate] | Ki [1]: ≤ 100 nM
2 | – | NCc1ccc2cc(C(=O)OC[C@H]3CCCCN3)n(Cc3cc(NS(=O)(=O)Cc4ccccc4)cc4ccccc34)c2n1 [Compound 72, [(2R)-piperidin-2-yl]-methyl 6-(aminomethyl)-1-{[3-(phenylmethane-sulfonamido)naphthalen-1-yl]methyl}-1H-pyr-rolo[2,3-b]pyridine-2-carboxylate] | Ki [1]: ≤ 100 nM
3 | 500 to 3000 nM | COC[C@H]1CCCN1C(=O)Nc1cc(Cn2c(C(=O)O)cc3ccc(CN)nc32)c2ccccc2c1 [Compound 307] | –
4 | 500 to 3000 nM | CC1(O)CCN(C(=O)Nc2cc(Cn3c(C(=O)O)cc4ccc(CN)nc43)c3ccccc3c2)CC1 [Compound 300] | –
5 | 500 to 3000 nM | NCc1ccc2cc(C(=O)O)n(Cc3cc(NS(=O)(=O)CC4CCC(C(F)(F)F)CC4)cc4ccccc34)c2c1 (stereo not drawn) [Compound 392] | –
6 | 100 to 500 nM | NCc1ccc2cc(C(=O)O)n(Cc3cc(NS(=O)(=O)Cc4ccccc4)cc4c3CCCC4)c2n1 [Compound 285, 6-(aminomethyl)-1-((3-((phenylmethyl)sulfonamido)-5,6,7,8-tetrahydronaphthalen-1-yl)methyl)-1H-pyrrolo[2,3-b]pyridine-2-carboxylic acid] | –
7 | – | CCOC(=O)c1cc2ccc(CN)nc2n1Cc1cc(NS(=O)(=O)Cc2ccccc2)cc2ccccc12 [Compound 115, ethyl 6-(aminomethyl)-1-{[3-(phenylmethanesul-fonamido)naphthalen-1-yl]methyl}-1H-pyrrolo-[2,3-b]pyridine-2-car-boxylate] | Ki [1]: 500 to 3000 nM
8 | 500 to 3000 nM | C[C@@H]1C[C@H](C)CN(C(=O)Nc2cc(Cn3c(C(=O)O)cc4ccc(CN)nc43)c3ccccc3c2)C1 [Compound 301, 6-(aminomethyl)-1-[(3-{[(3R,5S)-3,5-dimeth-ylpiperidine-1-carbonyl]-amino}naphthalen-1-yl)-methyl]-1H-pyrrolo[2,3-b]pyridine-2-carboxylic acid] | –
9 | ≤ 100 nM | CN1CCC(COC(=O)c2cc3ccc(CN)nc3n2Cc2cc(NS(=O)(=O)Cc3ccoc3)cc3ccccc23)CC1 [Compound 207, (1-methylpiperidin-4-yl)-methyl 6-(aminomethyl)-1-({3-[(furan-3-yl)meth-anesulfonamido]naph-thalen-1-yl}methyl)-1H-pyrrolo[2,3-b]pyridine-2-carboxylate] | –
10 | 100 to 500 nM | NCc1ccc2cc(-c3noc(=O)[nH]3)n(Cc3cc(NS(=O)(=O)Cc4ccccc4)cc4ccccc34)c2n1 [Compound 353, N-(4-((6-(aminomethyl)-2-(5-hydroxy-1,2,4-oxadiazol-3-yl)-1H-pyrrolo[2,3-b]pyridin-1-yl)methyl)naphthalen-2-yl)-1-phenylmethanesulfonamide] | –
11 | 100 to 500 nM | NCc1ccc2cc(C(=O)OCCO)n(Cc3cc(NS(=O)(=O)CC[C@@H]4CCCN4)cc4ccccc34)c2n1 [Compound 260, 2-hydroxyethyl 6-(aminomethyl)-1-[(3-{2-[(2S)-pyrrolidin-2-yl]-ethanesulfonamido}naph-thalen-1-yl)methyl]-1H-pyrrolo[2,3-b]pyridine-2-carboxylate] | –
12 | – | Cc1cccc(C)c1CS(=O)(=O)Nc1cc(Cn2c(C(=O)O)cc3ccc(CN)nc32)c2ccccc2c1 [Compound 195, 6-(aminomethyl)-1-({3-[(2,6-dimethylphenyl)-methanesulfonamido]-naphthalen-1-yl}methyl)-1H-pyrrolo[2,3-b]pyr-idine-2-carboxylic acid] | Ki [1]: ≤ 100 nM
13 | – | CN1CCC(COC(=O)c2cc3ccc(CN)nc3n2Cc2cc(NS(=O)(=O)Cc3ccccc3)cc3c2CCCC3)CC1=O (stereo not drawn) [Compound 2.19] | Ki [3]: ≤ 100 nM
14 | 100 to 500 nM | CN1CCC[C@H]1CCOC(=O)Nc1cc(Cn2c(C(=O)O)cc3ccc(CN)nc32)c2ccccc2c1 [Compound 289, (S)-6-(aminomethyl)-1-((3-(((2-(1-methylpyrrolidin-2-yl)ethoxy)carbonyl)amino)naphthalen-1-yl)methyl)-1H-pyrrolo[2,3-b]pyridine-2-carboxylic acid] | –
15 | – | CN(C)C12CC(COC(=O)c3cc4ccc(CN)nc4n3Cc3cc(NS(=O)(=O)Cc4ccccc4)cc4ccccc34)(C1)C2 [Compound 2.40] | Ki [3]: ≤ 100 nM
16 | 100 to 500 nM | CCN(CC)CCS(=O)(=O)Nc1cc(Cn2c(C(=O)O)cc3ccc(CN)nc32)c2ccccc2c1 [Compound 265, 6-(aminomethyl)-1-({3-[2-(diethylamino)ethane-sulfonamido]naphthalen-1-yl}methyl)-1H-pyr-rolo[2,3-b]pyridine-2-carboxylic acid] | –
17 | – | NCc1ccc2cc(C(=O)OCC3CCNC(=O)C3)n(Cc3cc(NS(=O)(=O)Cc4ccsc4)cc4c3CCCC4)c2n1 (stereo not drawn) [Compound 2.11] | Ki [3]: ≤ 100 nM
18 | – | NCc1ccc2cc(C(=O)OCC34CCN(CC3)CC4)n(Cc3cc(NS(=O)(=O)Cc4ccccc4)cc4ccccc34)c2n1 [Compound 19, {1-azabicyclo[2.2.2]-octan-4-yl}methyl 6-(aminomethyl)-1-{[3-(phenylmethanesulfon-amido)naphthalen-1-yl]-methyl}-1H-pyrrolo[2,3-b]pyridine-2-carboxylate] | Ki [1]: ≤ 100 nM
19 | – | Cc1cccc(C)c1CS(=O)(=O)Nc1cc(Cn2c(C(=O)OCc3cncn3C)cc3ccc(CN)nc32)c2ccccc2c1 [Compound 187, (1-methyl-1H-imidazol-5-yl)methyl 6-(amino-methyl)-1-({3-[(2,6-dimethylphenyl)methane-sulfonamido]naphthalen-1-yl}methyl)-1H-pyr-rolo[2,3-b]pyridine-2-carboxylate] | Ki [1]: ≤ 100 nM
20 | 100 to 500 nM | NCc1ccc2cc(C(=O)O)n(Cc3cc(NS(=O)(=O)[C@H]4CCNC4)cc4ccccc34)c2n1 [Compound 259, 6-(aminomethyl)-1-({3-[(3S)-pyrrolidine-3-sul-fonamido]naphthalen-1-yl}methyl)-1H-pyrrolo-[2,3-b]pyridine-2-car-boxylic acid] | –
21 | 100 to 500 nM | Cc1nc(CS(=O)(=O)Nc2cc(Cn3c(C(=O)O)cc4ccc(CN)nc43)c3ccccc3c2)cs1 [Compound 256, 6-(aminomethyl)-1-({3-[(2-methyl-1,3-thiazol-4-yl)methanesulfon-amido]naphthalen-1-yl}-methyl)-1H-pyrrolo[2,3-b]pyridine-2-carboxylic acid] | –
22 | 500 to 3000 nM | NCc1ccc2cc(C(=O)O)n(Cc3cc(NS(=O)(=O)C4CCCCC4)cc4ccccc34)c2n1 [Compound 279, 6-(aminomethyl)-1-[(3-cyclohexanesulfon-amidonaphthalen-1-yl)-methyl]-1H-pyrrolo[2,3-b]pyridine-2-carboxylic acid] | –
23 | – | CN1CC(COC(=O)c2cc3ccc(CN)nc3n2Cc2cc(NS(=O)(=O)Cc3ccsc3)cc3ccccc23)CC1=O (stereo not drawn) [Compound 2.20] | Ki [3]: ≤ 100 nM
24 | – | CC(=O)N1CCC(COC(=O)c2cc3ccc(CN)nc3n2Cc2cc(NS(=O)(=O)Cc3ccccc3)cc3ccccc23)CC1 [Compound 67, (1-acetylpiperidin-4-yl)-methyl 6-(aminomethyl)-1-{[3-(phenylmethane-sulfonamido)naphthalen-1-yl]methyl}-1H-pyr-rolo[2,3-b]pyridine-2-carboxylate] | Ki [1]: ≤ 100 nM
25 | 100 to 500 nM | CC(C)(C)S(=O)(=O)N1CCC(CS(=O)(=O)Nc2cc(Cn3c(C(=O)O)cc4ccc(CN)nc43)c3ccccc3c2)CC1 [Compound 267, 6-(aminomethyl)-1-[(3-{[1-(2-methylpropane-2-sulfonyl)piperidin-4-yl]-methanesulfonamido}-naphthalen-1-yl)methyl]-1H-pyrrolo[2,3-b]pyr-idine-2-carboxylic acid] | –
26 | 500 to 3000 nM | CC1(C)CCN(C(=O)Nc2cc(Cn3c(C(=O)O)cc4ccc(CN)nc43)c3ccccc3c2)CC1 [Compound 296, 6-(aminomethyl)-1-({3-[(4,4-dimethylpiperidine-1-carbonyl)amino]naph-thalen-1-yl}methyl)-1H-pyrrolo[2,3-b]pyridine-2-carboxylic acid] | –

Row | SMILES | Ki [2] | other results
27 | CC(C)(C)OC(=O)N1CCC(CCS(=O)(=O)Nc2cc(Cn3c(C(=O)O)cc4ccc(CN)nc43)c3ccccc3c2)CC1 [Compound 274, 6-(aminomethyl)-1-{[3-(2-{1-[(tert-butoxy)car-bonyl]piperidin-4-yl}-ethanesulfonamido)naph-thalen-1-yl]methyl}-1H-pyrrolo[2,3-b]pyridine-2-carboxylic acid] | 500 to 3000 nM | –
